melting point | SMILES
89 to 90 °C | [C-]#[N+]CS(=O)(=O)c1ccccc1 [compound 3a, ((Isocyanomethyl)sulfonyl)benzene]
112 to 113 °C | [C-]#[N+]CS(=O)(=O)c1ccc(C)cc1 [compound 3b, 1-((isocyanomethyl)sulfonyl)-4-methylbenzene]
104 to 105 °C | [C-]#[N+]CS(=O)(=O)c1ccc2ccccc2c1 [compound 3d, 2-((isocyanomethyl)sulfonyl)naphthalene]
63 °C | [C-]#[N+]CS(=O)(=O)c1ccc(F)cc1 [compound 3e, 1-fluoro-4-((isocyanomethyl)sulfonyl)benzene]
109 to 110 °C (dec.) | [C-]#[N+]CS(=O)(=O)c1ccc(Cl)cc1 [compound 3f, 1-Chloro-4-((isocyanomethyl)sulfonyl)benzene]
82 to 83 °C | [C-]#[N+]CS(=O)(=O)c1cc(Cl)cc(Cl)c1 [compound 3h, 1,3-dichloro-5-((isocyanomethyl)sulfonyl)benzene]
101 to 102 °C | [C-]#[N+]CS(=O)(=O)c1ccc(OC)c(OC)c1 [compound 3k, 4-((isocyanomethyl)sulfonyl)-1,2-dimethoxybenzene]
90 to 91 °C | [C-]#[N+]CS(=O)(=O)c1c(OC)cccc1OC [compound 3p, 2-((Isocyanomethyl)sulfonyl)-1,3-dimethoxybenzene]
